From article PMC4841555, “Optimization of the All-D Peptide D3 for Aβ Oligomer Elimination” (PLoS ONE, 2016)
Values joined by “and” are separate entries in the source; they are usually repeats but may differ in a detail not shown here. Equal values may be shown once. Non-standard residues stand in square brackets, D forms with d. Residues, ends and D or L forms follow the SMILES beside them.

Key:
Aβ(1–42) [1] = molecular target: T1, Aβ(1–42) (Homo sapiens, UniProt P05067); test: Thioflavin T (ThT) fibril formation assay; assay type: biochemical; settings: 20 μM Aβ(1–42), 20 μM peptide (method: 31 μg/ml), 20 μM ThT, 10 mM sodium phosphate pH 7.4, 37°C, compared after 5 h with Aβ(1–42)-only control
T1 construct: Aβ(1–42), N-terminally biotinylated Aβ(1–42) and FITC-Aβ(1–42) were purchased from Bachem; purchased Bachem (Heidelberg, Germany)
Procedure: 20 μM Aβ(1–42) was mixed with 20 μM Thioflavin T (ThT) and 31 μg/ml DB3 or DB3DB3 in 10 mM sodium phosphate buffer, pH 7.4. The assay was performed using a non-binding 96 well plate (Greiner Bio-One, Frickenhausen, Germany). ThT fluorescence was measured every 15 min at λex = 440 nm and λem = 490 nm in a temperature-controlled plate reader (Polarstar Optima, BMG, Offenburg, Germany) at 37°C with 1 min agitation before every measurement. Each value was background corrected using the ThT fluorescence of a peptide solution without Aβ(1–42). To investigate the influence of DB1 to DB5 on Aβ fibril formation, a Thioflavin T (ThT) assay was performed. In an aqueous environment the benzothiazole dye has a low fluorescence. […] The emission at 490 nm is directly proportional to the quantity of amyloid fibrils. Fibril formation of Aβ can be followed in real time by measuring the ThT fluorescence. Therefore, the inhibitory effects of the D-peptides DB1 to DB5 and D3 were investigated by co-incubating these peptides with Aβ(1–42) and performing the ThT assay. Fluorescence emission data were compared after 5 h incubation, because after this period the Aβ(1–42) control (without added peptide) reached its fluorescence maximum. […] 20 μM Aβ(1–42) was mixed with 20 μM DB1 to DB5 or 10 μM DB3DB3 and the ThT fluorescence was monitored. Aβ(1–42) without peptide addition was taken as the control. The ThT fluorescence of all samples were compared after 5 h, where the control, Aβ(1–42) only, reached its maximum in fluorescence emission. The Mann-Whitney-U-test was used for statistical analysis. * p < 0.05; ** p < 0.01; *** p < 0.001.

transgenic mice = settings: ref [10], [15], [16], cited from earlier work
Text: We have previously selected the 12mer all-D-enantiomeric peptide D3 via mirror image phage display. In vitro, D3 binds to amyloid plaques, reduces Aβ aggregation to regular fibrils, eliminates Aβ oligomers and converts preformed fibrils into non-amyloidogenic, non-fibrillar, non-toxic aggregates. In vivo, the plaque load and cerebral inflammation of transgenic mice is reduced after injection of D3 into the brain and cognitive impairment of transgenic mice is improved after oral application. The original phage library, from which D3 was selected, coded ...

Aβ(1–42) [2] = molecular target: T1, Aβ(1–42); test: Aβ aggregation inhibition ELISA; assay type: biochemical; settings: 400 nM Aβ(1–42), 500 mM Tris pH 7.4, 23 h, 37°C, aggregate-specific ELISA, logistic fit, three independent experiments; read-out: EC50 of inhibition of Aβ aggregate formation
Procedure: Freshly dissolved monomeric Aβ(1–42) (400 nM in 500 mM Tris-buffer pH 7.4) was incubated with and without DB peptides in different concentrations (0.01, 0.05, 0.1, 0.5, 1, 5, 10, 50 and 100 μM for DB3 or half of the molar concentrations in case of DB3DB3) in a humidity chamber for 23 h at 37°C. The aggregation was analyzed by an enzyme-linked immunosorbent assay (ELISA). NP27 antibody in bicarbonate/carbonate buffer was used to coat the ELISA plate overnight. Then the plate was washed in PBS-Tween buffer (1x PBS + 0.05% Tween) and blocked for 2 h at room temperature with 5% casein buffer. After washing, Aβ aggregate solutions were added to the plate and incubated for 1 h at room temperature. The plate was washed again and bound Aβ aggregates were detected by biotinylated 6E10/HRP-avidin mediated immunoreaction (BioLegend, San Diego, CA USA) using TMB as detection reagent. […] Mean value and standard error were calculated from three independent experiments. EC50 was calculated by fitting the data to a logistic dose response function.
Fig 5 Inhibition of Aβ fibril formation and Aβ aggregation disassemble by DB3 and DB3DB3. A) Monomeric Aβ(1–42) (400 nM) was mixed with different concentrations of DB3 (0.01, 0.05, 0.1, 0.5, 1, 5, 10, 50, 100 μM) and the aggregation state of Aβ was analyzed using an Aβ aggregate specific ELISA. […] All data were determined in triplicate. […]

PC12 cells = test: MTT cell viability assay; assay type: cell-based, rat; settings: 5 μM peptide without Aβ, 24 h
Procedure: Rat pheochromocytoma PC12 cells (Leibniz Institute DSMZ, Braunschweig, Germany) were cultivated in DMEM medium supplemented with 10% fetal bovine serum and 5% horse serum. 10,000 cells per well were seeded on collagen-coated 96 well plates (Gibco, Life technology, Carlsberg, USA) and incubated in a 95% humidified atmosphere with 5% CO2 at 37°C for 24 h. […] DB peptide was then added at different concentrations and incubated for further 40 min at 21°C and 600 rpm agitation before addition to the PC12 cells. […] Cell viability was then measured using the Cell proliferation Kit I (MTT) (Roche, Basel, Switzerland) according to the manufacturer’s instruction. The absorbance of the formazan product was determined by measuring at 570 nm after subtracting the absorption at 660 nm. For absorption measurements, a Polarstar Optima plate reader (BMG, Offenburg, Germany) was used. All results were normalized to cells that were treated with buffer only.
The cell viability assay was performed using PC12 cells in a MTT test. […] The absorption of buffer treated cells was set to 100% cell viability. […] The Mann-Whitney-U-test was used for statistical analysis. * p < 0.05; ** p < 0.01; *** p < 0.001.

[3] = molecular target: T2, preformed Aβ(1–42) aggregates (Homo sapiens, UniProt P05067); test: Aβ aggregate disassembly ELISA; assay type: biochemical
T2 construct: Aβ(1–42), N-terminally biotinylated Aβ(1–42) and FITC-Aβ(1–42) were purchased from Bachem; purchased Bachem (Heidelberg, Germany)
Procedure: Freshly dissolved monomeric Aβ(1–42) (400 nM in 500 mM Tris-buffer pH 7.4) was incubated in a humidity chamber for 22 h at 37°C in order to preform Aβ(1–42) aggregates. These preformed aggregates were coincubated with D-peptide in different concentrations (0.01, 0.05, 0.1, 0.5, 1, 5, 10, 50, 100 μM for DB3 or with half of the molar concentrations in case of DB3DB3) for additional 22 h at 37°C. The content of Aβ aggregates was measured and evaluated in the same way as the aggregation inhibition ELISA.
Fig 5 Inhibition of Aβ fibril formation and Aβ aggregation disassemble by DB3 and DB3DB3. A) Monomeric Aβ(1–42) (400 nM) was mixed with different concentrations of DB3 (0.01, 0.05, 0.1, 0.5, 1, 5, 10, 50, 100 μM) and the aggregation state of Aβ was analyzed using an Aβ aggregate specific ELISA. For DB3DB3 half of the molar concentrations compared to DB3 were used. Aβ without DB3 and DB3DB3 addition was taken as control. For DB3 an EC50 of 6 μM was calculated using a logistic fit model. DB3DB3 inhibited the formation of Aβ fibrils more efficiently with an EC50 of 7 nM. B) The disassembly properties of DB3 and DB3DB3 were measured using an Aβ aggregation specific ELISA. Monomeric Aβ(1–42) (400 nM) was preincubated in order to form fibrils and mixed with nine different concentrations of DB3 (0.01, 0.05, 0.1, 0.5, 1, 5, 10, 50, 100 μM). For DB3DB3, the molar concentrations were half those used for DB3. […] DB3DB3 disassembled Aβ aggregates at the lowest concentration […]. Thus, the EC50 could not be determined, but is < 10 nM. All data were determined in triplicate. The Mann-Whitney-U-test was performed for statistical analysis. * p< 0.05; ** p < 0.01; *** p < 0.001
The Aβ aggregate disassembly ELISA was used to analyze the effect of DB3 and DB3DB3 on preformed Aβ aggregates (Fig 5B). […] The Aβ aggregates specific ELISA was used to quantify Aβ aggregates. […] The results of measured Aβ aggregates normalized to the Aβ control were plotted against the peptide concentration. The EC50 was calculated by a logarithmic dose response function.

Aβ(1–42) oligomers = molecular target: T3, Aβ(1–42) oligomers (Homo sapiens, UniProt P05067); test: QIAD assay (Aβ oligomer elimination); assay type: biochemical; settings: 10 μM DB3DB3, 80 μM Aβ(1–42) preincubated 4.5 h, 40 min with peptide, density gradient centrifugation, RP-HPLC, triplicate
T3 construct: Aβ(1–42), N-terminally biotinylated Aβ(1–42) and FITC-Aβ(1–42) were purchased from Bachem; purchased Bachem (Heidelberg, Germany)
Procedure: The quantitative determination of interference with Aβ(1–42) aggregate size distribution (QIAD) was performed as described before. In brief, 80 μM Aβ(1–42) was incubated in 10 mM sodium phosphate buffer, pH 7.4 for 4.5 h at 22°C with 600 rpm agitation. Aβ(1–42) aggregation was continued for an additional 40 min with or without DB peptide. The obtained partial size distribution was analyzed by applying density gradient centrifugation. 100 μl of the incubated sample was placed on top of a gradient with 5 to 50% iodixanol (Optiprep, Axis-shield, Oslo, Norway) and separated at 259.000 x g for 3 h at 4°C using an ultracentrifuge (Optima MAX-XP, Beckman Coulter, Brea, USA). Fourteen fractions of 140 μl were taken from top to bottom. […] For quantification of the Aβ(1–42) amount in each fraction, reversed-phase high performance liquid chromatography (RP-HPLC) was performed using a Zorbax SB-300 C8 column (Agilent, Böblingen, Germany) connected to an Agilent 1260 Infinity system using 30% (v/v) acetonitrile with 0.1% (v/v) trifluoroacetic acid (TFA) as the mobile phase with a flow of 1 ml/min and a column temperature of 80°C. […] The UV absorption at 214 nm was measured. For quantification of the Aβ(1–42) amount, the area under the peak representing Aβ(1–42) was calculated and the molar concentration was determined using a calibration curve. […]

T1 sequence (P05067 672-713 limits assumed): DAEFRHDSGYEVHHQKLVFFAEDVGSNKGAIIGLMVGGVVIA
T2 sequence (P05067 672-713 limits assumed): as above
T3 sequence (P05067 672-713 limits assumed): as above

Molecule: RPITRLHTDRNR [DB1, all-D D3 derivative, C-terminally amidated]
- inhibition of Aβ(1–42) fibril formation (ThT fluorescence) (Aβ(1–42) [1]): 63%

Molecule: RPRTRLRTHQNR [DB4, all-D D3 derivative, C-terminally amidated]
- inhibition of Aβ(1–42) fibril formation (ThT fluorescence) (Aβ(1–42) [1]): no effect

Molecule: RPRTRLHTHRNR [D3, 12mer all-D-enantiomeric peptide selected via mirror image phage display, C-terminally amidated]
- inhibition of Aβ(1–42) fibril formation (ThT fluorescence) (Aβ(1–42) [1]): 30%
- plaque load and cerebral inflammation of transgenic mice (transgenic mice; injection of D3 into the brain): reduced
- cognitive impairment of transgenic mice (transgenic mice; oral application): improved

Molecule: RPITRLQTHEQR [DB5, all-D D3 derivative, C-terminally amidated]
- inhibition of Aβ(1–42) fibril formation (ThT fluorescence) (Aβ(1–42) [1]): 76%

Molecule: CC[C@@H](C)[C@@H](NC(=O)[C@H]1CCCN1C(=O)[C@H](N)CCCNC(=N)N)C(=O)N[C@@H](C(=O)N[C@H](CCCNC(=N)N)C(=O)N[C@H](CC(C)C)C(=O)N[C@H](CCCNC(=N)N)C(=O)N[C@@H](C(=O)N[C@H](Cc1c[nH]cn1)C(=O)N[C@H](CCC(N)=O)C(=O)N[C@H](CC(N)=O)C(=O)N[C@H](CCCNC(=N)N)C(=O)N[C@H](CCCNC(=N)N)C(=O)N1CCC[C@@H]1C(=O)N[C@@H](C(=O)N[C@@H](C(=O)N[C@H](CCCNC(=N)N)C(=O)N[C@H](CC(C)C)C(=O)N[C@H](CCCNC(=N)N)C(=O)N[C@@H](C(=O)N[C@H](Cc1c[nH]cn1)C(=O)N[C@H](CCC(N)=O)C(=O)N[C@H](CC(N)=O)C(=O)N[C@H](CCCNC(=N)N)C(N)=O)[C@H](C)O)[C@H](C)O)[C@H](C)CC)[C@H](C)O)[C@H](C)O [DB3DB3] (H-[dR][dP][dI][dT][dR][dL][dR][dT][dH][dQ][dN][dR][dR][dP][dI][dT][dR][dL][dR][dT][dH][dQ][dN][dR]-NH2)
- EC50 (Aβ(1–42) [2]): 8 nM and 7 nM
- effect of peptide alone on PC12 cell viability (PC12 cells): not toxic
- disassembly of the Aβ aggregates ([3]; 10 nM DB3DB3 added to 400 nM Aβ, compared to Aβ in the absence of peptide): 80%
- EC50 ([3]; 400 nM Aβ(1–42) preincubated 22 h at 37°C, then with peptide 22 h (24 h) at 37°C, ELISA, triplicate): < 10 nM
- reduction of the content of Aβ oligomers (Aβ(1–42) oligomers): 82%

Molecule: RPITTLQTHQNR [DB2, all-D D3 derivative, C-terminally amidated]
- inhibition of Aβ(1–42) fibril formation (ThT fluorescence) (Aβ(1–42) [1]): 49%
